Measurements reported in patent US12583835B2, “Crystal form of nitroxoline prodrug, pharmaceutical composition containing same, and preparation method therefor and application thereof” (Jiangsu Yahong Meditech Co., Ltd., priority 2020, dated 2026).
Where “and” joins values, the source holds several entries; their conditions need not be identical. Equal entries are not always repeated.

Legend:
[1] = Pharmacokinetic assay in rats; format: in vivo; details: SD rats, oral 0.1 mmol/kg, 24 h, individual animals
Source text: (§1) In this experiment, after a single intravenous or oral administration of nitroxoline and the compound obtained in Example 1 to rats, the changes in the concentration of the compound nitroxoline in rat plasma were studied, so as to evaluate the in vivo pharmacokinetic behaviors of nitroxoline and the compound obtained in Example 1 in rats.
Male SD rats (Beijing Vital River Laboratory Animal Technology Co., Ltd., laboratory animal production license No.: SCXK (Beijing) 2016-0006, laboratory animal certificate No.: 11400700325643), 3 rats per group, weight 180-250 g, 6-7 weeks old, were fasted overnight before drug administration with free access to water, and food was given 4 hours after drug administration. The compound to be tested was put into an EP tube, 1.017 mL dimethyl sulfoxide, 2.035 mL Solutol® and sterile water for injection (the volume ratio of the three was 1:2:17, v:v:v) were added, and the EP tube was sonicated for 20 minutes to fully dissolve the compound (formulation concentration of the compound: 0.005 mmol/mL). […]
Sample to be tested: to 50 μL of plasma sample to be tested was added 5 μL of diluted working solution, then 150 μL of internal standard working solution (a solution of 2 ng/mL diphenhydramine in acetonitrile), and the resulting solution was vortexed for 1 minute. […] Pharmacokinetic parameters were calculated using WinNonlin V6.2 non-compartmental model.

[2] = human; single-arm, open-label, multi-center phase II clinical trial; cited from earlier work
[3] = Pharmacokinetic assay in dogs; format: in vivo; details: beagles
Source text: as §1, with “Nitroxoline is mainly metabolized by Phase II metabolism in the liver with a high metabolism rate, thus the in vivo half-life is short. In” for “In”, “to dogs,” for “to rats,”, “in dog” for “in rat”, “Example 1.” for “Example 1 in rats.”
Male beagles (Beijing Marshall Bioresources Co., Ltd., laboratory animal production license No.: SCXK (Beijing) 2016-0001, laboratory animal certificate No.: 11400600001728), 3 beagles per group, weight 10-13 kg, 20-22 months old, were fasted overnight before drug administration with free access to water, and food was given 4 hours after drug administration. The compound to be tested was put into an EP tube, dimethyl sulfoxide, Solutol® and sterile water for injection (the volume ratio of the three was 1:2:17, v:v:v) were added, and the EP tube was sonicated for 20 minutes to fully dissolve the compound (formulation concentration of the compound: 0.005 mmol/mL). The intravenous dose was 0.01 mmol/kg, and the oral dose was 0.1 mmol/kg. 0.3 ml of whole blood was collected from the jugular vein before drug administration (0 hour) and 0.0833, 0.25, 0.5, 0.75, 1, 2, 4, 6, 8, 10 and 12 hours after drug administration (the sampling points were adjusted according to the situation) and placed in a centrifuge tube containing EDTA-K2 (Aldrich Reagents) for anticoagulation, which was placed in crushed ice after sample collection. The tube was centrifuged at 1530 g for 10 minutes within 0.5 hours of sample collection. All clean plasma were isolated and placed in another clean centrifuge tube, which was placed in a −20° C. refrigerator until testing.
A series of solutions for standard curve was prepared. To 10 μL of solutions for standard curve and samples was added 1000 μL of internal standard working solution (a solution of 5 ng/mL verapamil (Aldrich Reagents), 50 ng/mL glibenclamide (Aldrich Reagents) and 50 ng/mL diclofenac (Aldrich Reagents) in acetonitrile) was added, and the resulting solution was vortexed for 5 minutes. After centrifuging at 4° C., 3700 rpm for 10 minutes, 60 μL of the supernatant was collected into a sample tube and mixed well with 120 μL of water, and 10 μL of the mixed solution was injected into the LC/MS system for determination. Pharmacokinetic parameters were calculated using WinNonlin V6.2 non-compartmental model.

- Plasma concentration of nitroxoline [1]: <5.0 ng/mL (2×) and 14.6 ng/mL
- AUC0-inf of nitroxoline in plasma ([3]; intravenous 0.01 mmol/kg): 3300 ng*hmL^−1
- AUC0-inf of nitroxoline in plasma ([3]; oral 0.1 mmol/kg): 4780 ng*hmL^−1
Compound: O=[N+]([O-])c1ccc(O)c2ncccc12 [Nitroxoline, 5-nitro-8-hydroxyquinoline]
- half-life [2]: 1.22 to 1.44 h
